Source: PubChem BioAssay (NCI)
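The compound was tested at five concentrations on cells cultured in 96-well plates, with a 48-hour exposure period. TGI: total growth inhibition.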

Legend:
Assay in all cases: inhibition of tumour cell growth, NCI panel, 48 h
SF-268 CNS = test system: SF-268 CNS
MDA-N = test system: MDA-N
HS 578T breast = test system: HS 578T breast
BT-549 breast = test system: BT-549 breast
TK-10 renal = test system: TK-10 renal
SF-295 CNS = test system: SF-295 CNS
SN12C renal = test system: SN12C renal
SK-MEL-5 melanoma = test system: SK-MEL-5 melanoma
LOX IMVI melanoma = test system: LOX IMVI melanoma
HCT-15 colon = test system: HCT-15 colon
UACC-62 melanoma = test system: UACC-62 melanoma
PC-3 prostate = test system: PC-3 prostate
OVCAR-3 ovarian = test system: OVCAR-3 ovarian
RXF 393 renal = test system: RXF 393 renal
MDA-MB-435 = test system: MDA-MB-435
IGROV1 ovarian = test system: IGROV1 ovarian
K-562 leukemia = test system: K-562 leukemia
EKVX NSCLC = test system: EKVX NSCLC
OVCAR-4 ovarian = test system: OVCAR-4 ovarian
786-0 renal = test system: 786-0 renal
KM12 colon = test system: KM12 colon
SK-OV-3 ovarian = test system: SK-OV-3 ovarian
T-47D breast = test system: T-47D breast
OVCAR-8 ovarian = test system: OVCAR-8 ovarian
CCRF-CEM leukemia = test system: CCRF-CEM leukemia
COLO 205 colon = test system: COLO 205 colon
HT29 colon = test system: HT29 colon
NCI-H460 lung = test system: NCI-H460 lung
SNB-19 CNS = test system: SNB-19 CNS
SF-539 CNS = test system: SF-539 CNS
HCT-116 colon = test system: HCT-116 colon
SK-MEL-2 melanoma = test system: SK-MEL-2 melanoma
NCI-H226 lung = test system: NCI-H226 lung
UACC-257 melanoma = test system: UACC-257 melanoma
SK-MEL-28 melanoma = test system: SK-MEL-28 melanoma
DU-145 prostate = test system: DU-145 prostate
NCI-H522 lung = test system: NCI-H522 lung
HOP-92 NSCLC = test system: HOP-92 NSCLC
ACHN renal = test system: ACHN renal
HCC-2998 colon = test system: HCC-2998 colon
M14 melanoma = test system: M14 melanoma
A498 renal = test system: A498 renal
MALME-3M melanoma = test system: MALME-3M melanoma
SNB-75 CNS = test system: SNB-75 CNS
NCI/ADR-RES ovarian = test system: NCI/ADR-RES ovarian
OVCAR-5 ovarian = test system: OVCAR-5 ovarian
A549 NSCLC = test system: A549 NSCLC
CAKI-1 renal = test system: CAKI-1 renal
NCI-H23 lung = test system: NCI-H23 lung
MOLT-4 leukemia = test system: MOLT-4 leukemia
SR leukemia = test system: SR leukemia
U251 CNS = test system: U251 CNS
MDA-MB-231 breast = test system: MDA-MB-231 breast
MCF7 breast = test system: MCF7 breast
RPMI-8226 leukemia = test system: RPMI-8226 leukemia
UO-31 renal = test system: UO-31 renal
HL-60(TB) leukemia = test system: HL-60(TB) leukemia
SW-620 colon = test system: SW-620 colon
HOP-62 NSCLC = test system: HOP-62 NSCLC

C[C@]12CC[C@H]3[C@@H](CC[C@]4(O)C[C@@H](O)CC[C@]34/C=N/O)[C@@]1(O)CC[C@@H]2C1=COC(=O)C1
TGI (SF-268 CNS): 331 nM | TGI (MDA-N): 1030 nM | TGI (HS 578T breast): > 100000 nM | TGI (BT-549 breast): 245 nM | TGI (TK-10 renal): 454 nM | TGI (SF-295 CNS): 386 nM | TGI (SN12C renal): 1240 nM | TGI (SK-MEL-5 melanoma): 241 nM | TGI (LOX IMVI melanoma): 489 nM | TGI (HCT-15 colon): 450 nM | TGI (UACC-62 melanoma): 919 nM | TGI (PC-3 prostate): 532 nM | TGI (OVCAR-3 ovarian): 349 nM | TGI (RXF 393 renal): 91 nM | TGI (MDA-MB-435): 623 nM | TGI (IGROV1 ovarian): 2980 nM | TGI (K-562 leukemia): 930 nM | TGI (EKVX NSCLC): 344 nM | TGI (OVCAR-4 ovarian): 279 nM | TGI (786-0 renal): 362 nM | TGI (KM12 colon): 2510 nM | TGI (SK-OV-3 ovarian): 403 nM | TGI (T-47D breast): 975 nM | TGI (OVCAR-8 ovarian): 458 nM | TGI (CCRF-CEM leukemia): > 100000 nM | TGI (COLO 205 colon): 1330 nM | TGI (HT29 colon): 594 nM | TGI (NCI-H460 lung): 166 nM | TGI (SNB-19 CNS): 2050 nM | TGI (SF-539 CNS): 221 nM | TGI (HCT-116 colon): 165 nM | TGI (SK-MEL-2 melanoma): 587 nM | TGI (NCI-H226 lung): 1350 nM | TGI (UACC-257 melanoma): 1620 nM | TGI (SK-MEL-28 melanoma): 2060 nM | TGI (DU-145 prostate): 111 nM | TGI (NCI-H522 lung): 371 nM | TGI (HOP-92 NSCLC): 1060 nM | TGI (ACHN renal): 670 nM | TGI (HCC-2998 colon): 687 nM | TGI (M14 melanoma): 657 nM | TGI (A498 renal): 583 nM | TGI (MALME-3M melanoma): 1090 nM | TGI (SNB-75 CNS): 4440 nM | TGI (NCI/ADR-RES ovarian): 604 nM | TGI (OVCAR-5 ovarian): 998 nM | TGI (A549 NSCLC): 115 nM | TGI (CAKI-1 renal): 47.6 nM | TGI (NCI-H23 lung): 272 nM

O=C(c1cc(Cl)ccc1Cl)N1CCN(C(=O)c2cc(Cl)ccc2Cl)CC1
TGI (SF-268 CNS): > 100000 nM | TGI (MDA-N): > 100000 nM | TGI (HS 578T breast): > 100000 nM | TGI (BT-549 breast): > 100000 nM | TGI (TK-10 renal): > 100000 nM | TGI (SF-295 CNS): > 100000 nM | TGI (SN12C renal): > 100000 nM | TGI (MOLT-4 leukemia): > 100000 nM | TGI (SK-MEL-5 melanoma): > 100000 nM | TGI (LOX IMVI melanoma): > 100000 nM | TGI (HCT-15 colon): > 100000 nM | TGI (SR leukemia): > 100000 nM | TGI (U251 CNS): > 100000 nM | TGI (PC-3 prostate): > 100000 nM | TGI (OVCAR-3 ovarian): > 100000 nM | TGI (RXF 393 renal): > 100000 nM | TGI (IGROV1 ovarian): > 100000 nM | TGI (K-562 leukemia): > 100000 nM | TGI (EKVX NSCLC): > 100000 nM | TGI (MDA-MB-231 breast): > 100000 nM | TGI (OVCAR-4 ovarian): > 100000 nM | TGI (786-0 renal): > 100000 nM | TGI (KM12 colon): > 100000 nM | TGI (T-47D breast): > 100000 nM | TGI (OVCAR-8 ovarian): > 100000 nM | TGI (MCF7 breast): > 100000 nM | TGI (CCRF-CEM leukemia): > 100000 nM | TGI (RPMI-8226 leukemia): > 100000 nM | TGI (UO-31 renal): > 100000 nM | TGI (HL-60(TB) leukemia): > 100000 nM | TGI (HT29 colon): > 100000 nM | TGI (NCI-H460 lung): > 100000 nM | TGI (SNB-19 CNS): > 100000 nM | TGI (SF-539 CNS): > 100000 nM | TGI (HCT-116 colon): > 100000 nM | TGI (NCI-H226 lung): > 100000 nM | TGI (UACC-257 melanoma): > 100000 nM | TGI (SW-620 colon): > 100000 nM | TGI (SK-MEL-28 melanoma): > 100000 nM | TGI (DU-145 prostate): > 100000 nM | TGI (NCI-H522 lung): > 100000 nM | TGI (HOP-92 NSCLC): > 100000 nM | TGI (ACHN renal): > 100000 nM | TGI (HCC-2998 colon): > 100000 nM | TGI (HOP-62 NSCLC): > 100000 nM | TGI (M14 melanoma): > 100000 nM | TGI (A498 renal): > 100000 nM | TGI (MALME-3M melanoma): > 100000 nM | TGI (SNB-75 CNS): > 100000 nM | TGI (OVCAR-5 ovarian): > 100000 nM | TGI (A549 NSCLC): > 100000 nM | TGI (CAKI-1 renal): > 100000 nM | TGI (NCI-H23 lung): > 100000 nM
